pEC50: −log10 of the molar value.
target: T1, hFXR (Homo sapiens, UniProt Q96RI1); experiment: In Vitro FXR Assay (TK): TK-ECRE-luc reporter in transfected CV-1 cells; type: cell-based; conditions: 18 hrs, luminescence, maximum efficacy of <25% of the Fexarmine control classified as '+'
T1 construct: expressed in transfected cells; host or cells: CV-1 cells
T1 sequence (Q96RI1 1-486): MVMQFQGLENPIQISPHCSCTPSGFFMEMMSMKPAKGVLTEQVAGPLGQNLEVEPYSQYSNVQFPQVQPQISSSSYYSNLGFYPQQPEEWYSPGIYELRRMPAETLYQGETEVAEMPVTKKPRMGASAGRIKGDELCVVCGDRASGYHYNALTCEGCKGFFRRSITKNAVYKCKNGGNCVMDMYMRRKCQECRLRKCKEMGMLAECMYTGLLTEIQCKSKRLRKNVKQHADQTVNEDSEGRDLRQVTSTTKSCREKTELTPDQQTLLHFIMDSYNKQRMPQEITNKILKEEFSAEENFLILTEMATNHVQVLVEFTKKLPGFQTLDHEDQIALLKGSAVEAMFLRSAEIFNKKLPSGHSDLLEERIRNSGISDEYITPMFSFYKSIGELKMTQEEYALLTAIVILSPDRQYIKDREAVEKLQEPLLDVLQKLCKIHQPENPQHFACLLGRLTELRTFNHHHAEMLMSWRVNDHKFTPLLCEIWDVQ
T1 sequence (P19793 1-462 partner): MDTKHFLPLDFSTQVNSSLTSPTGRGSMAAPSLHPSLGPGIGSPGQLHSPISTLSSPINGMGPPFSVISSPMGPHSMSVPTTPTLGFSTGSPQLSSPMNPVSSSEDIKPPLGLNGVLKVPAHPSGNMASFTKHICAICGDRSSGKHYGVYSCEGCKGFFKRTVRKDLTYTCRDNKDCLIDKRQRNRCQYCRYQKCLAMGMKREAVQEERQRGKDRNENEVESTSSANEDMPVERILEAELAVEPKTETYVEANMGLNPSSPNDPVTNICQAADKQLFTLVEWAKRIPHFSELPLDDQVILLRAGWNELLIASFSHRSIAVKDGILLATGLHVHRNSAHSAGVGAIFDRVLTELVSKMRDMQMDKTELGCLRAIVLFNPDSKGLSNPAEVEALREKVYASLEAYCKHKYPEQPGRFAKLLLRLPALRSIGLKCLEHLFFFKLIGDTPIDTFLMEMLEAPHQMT
Method in brief: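 Luciferase read-out after 18 h compound exposure of CV-1 cells carrying transfected hFXR plus hRXR expression plasmids, TK-ECRE-luc reporter and pCMX-YFP. Cells cultured in charcoal-stripped FBS before transfection; compounds serially diluted in DMSO.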

Row | Structure (SMILES) | pEC50
1 | COc1ccc([C@H]2CC[C@H](CN(c3cccc(-c4cnn(C5CC5)c4)c3)C(=O)[C@H]3CC[C@H](OC(=O)NCCCCN(C)C)CC3)CC2)cc1C [Compound 4.20, trans-4-((3-(1-Cyclopropyl-1H-pyrazol-4-yl)phenyl)((trans-4-(4-methoxy-3-methylphenyl)cyclohexyl)methyl)carbamoyl)cyclohexyl (4-(dimethylamino)butyl)carbamate] | ≥ 6.60
2 | COc1ccc([C@H]2CC[C@H](CN(c3cccc(-c4cnc(C5CC5)s4)c3)C(=O)[C@H]3CC[C@H](NC(C)=O)CC3)CC2)cc1C [Compound 25.09, trans-4-Acetamido-N-(3-(2-cyclopropylthiazol-5-yl)phenyl)-N-((trans-4-(4-methoxy-3-methylphenyl)cyclohexyl)methyl) cyclohexanecarboxamide] | ≥ 6.60
3 | COc1ccc([C@H]2CC[C@H](CN(c3cccc(-c4coc(C5CC5)n4)c3)C(=O)[C@H]3CC[C@H](OC(=O)N4CC(O)C4)CC3)CC2)nc1C#N [Compound 7.70, trans-4-(((trans-4-(6-Cyano-5-methoxypyridin-2-yl)cyclohexyl)methyl)(3-(2-cyclopropyloxazol-4-yl)phenyl)carbamoyl)cyclohexyl 3-hydroxyazetidine-1-carboxylate] | ≥ 6.60
4 | CNC(=O)O[C@H]1CC[C@H](C(=O)N(C[C@H]2CC[C@H](c3ccc(OC)c(C#N)c3)CC2)c2cc(-c3cnc(C4CC4)s3)ccn2)CC1 [Compound 5.05, trans-4-(((trans-4-(3-Cyano-4-methoxyphenyl)cyclohexyl)methyl)(4-(2-cyclopropylthiazol-5-yl)pyridin-2-yl)carbamoyl)cyclohexyl methylcarbamate] | ≥ 6.60
5 | COc1ccc([C@H]2CC[C@H](CN(c3cc(-c4cnn(C(C)C)c4)ccn3)C(=O)[C@H]3CC[C@H](OC(=O)N4CCC4)CC3)CC2)cc1C#N [Compound 7.46, trans-4-(((trans-4-(3-Cyano-4-methoxyphenyl)cyclohexyl)methyl)(4-(1-isopropyl-1H-pyrazol-4-yl)pyridin-2-yl)carbamoyl)cyclohexyl azetidine-1-carboxylate] | ≥ 6.60
6 | COc1ccc([C@H]2CC[C@H](CN(c3cccc(-c4cnn(C(C)C)c4)c3)C(=O)[C@H]3CC[C@H](OC(=O)N4CC(N(C)C)C4)CC3)CC2)nc1C [Compound 7.53, trans-4-((3-(1-Isopropyl-1H-pyrazol-4-yl)phenyl)((trans-4-(5-methoxy-6-methylpyridin-2-yl)cyclohexyl)methyl)carbamoyl)cyclohexyl 3-(dimethylamino)azetidine-1-carboxylate] | ≥ 6.60
7 | COc1ccc([C@H]2CC[C@H](CN(c3cc(-c4coc(C5CC5)n4)ccn3)C(=O)[C@H]3CC[C@H](OC(=O)N4CC(N(C)C)C4)CC3)CC2)cc1C [Compound 7.81, trans-4-((4-(2-Cyclopropyloxazol-4-yl)pyridine-2-yl)((trans-4-(4-methoxy-3-methylphenyl)cyclohexyl)methyl)carbamoyl)cyclohexyl 3-(dimethylamino)azetidine-1-carboxylate] | ≥ 6.60
8 | COc1ccc([C@H]2CC[C@H](CN(c3cc(-c4cnn(C5CC5)c4)ccn3)C(=O)[C@H]3CC[C@H](NC(=O)COC(C)=O)CC3)CC2)cc1C [Compound 26.31, 2-((trans-4-(4-(1-Cyclopropyl-1H-pyrazol-4-yl)pyridin-2-yl)((trans-4-(4-methoxy-3-methylphenyl)cyclohexyl)methyl)carbamoyl)cyclohexyl)amino)-2-oxoethyl acetate] | ≥ 6.60
9 | COc1ccc([C@H]2CC[C@H](CN(c3cccc(-c4coc(C5CC5)n4)c3)C(=O)[C@H]3CC[C@H](OC(=O)N4CC(O)C4)CC3)CC2)nc1C [Compound 7.66, trans-4-((3-(2-Cyclopropyloxazol-4-yl)phenyl)((trans-4-(5-methoxy-6-methylpyridin-2-yl)cyclohexyl)methyl)carbamoyl)cyclohexyl 3-hydroxyazetidine-1-carboxylate] | ≥ 6.60
10 | COc1ccc([C@H]2CC[C@H](CN(c3cccc(-c4coc(C(C)C)n4)c3)C(=O)[C@H]3CC[C@H](OC(=O)N4CC(O)C4)CC3)CC2)nc1C#N [Compound 7.74, trans-4-(((trans-4-(6-Cyano-5-methoxypyridin-2-yl)cyclohexyl)methyl)(3-(2-isopropyloxazol-4-yl)phenyl)carbamoyl)cyclohexyl 3-hydroxyazetidine-1-carboxylate] | ≥ 6.60
11 | COc1ccc([C@H]2CC[C@H](CN(c3cccc(-c4cnn(C5CC5)c4)c3)C(=O)[C@H]3CC[C@H](CC(=O)O)CC3)CC2)cc1C#N [Compound 20.11, 2-(trans-4-(((trans-4-(3-Cyano-4-methoxyphenyl)cyclohexyl)methyl)(3-(1-cyclopropyl-1H-pyrazol-4-yl)phenyl)carbamoyl)cyclohexyl)acetic acid] | ≥ 6.60
12 | COc1ccc([C@H]2CC[C@H](CN(c3cccc(-c4cnn(C(C)C)c4)c3)C(=O)[C@H]3CC[C@H](NC(=O)COC(C)=O)CC3)CC2)cc1C [Compound 26.11, 2-((trans-4-((3-(1-Isopropyl-1H-pyrazol-4-yl)phenyl)((trans-4-(4-methoxy-3-methylphenyl)cyclohexyl)methyl)carbamoyl)cyclohexyl)amino)-2-oxoethyl acetate] | ≥ 6.60
13 | COc1ccc([C@H]2CC[C@H](CN(c3cccc(-c4cnc(C5CC5)s4)c3)C(=O)[C@H]3CC[C@H](NC(=O)CN)CC3)CC2)cc1C [Compound 31.07, trans-4-(2-Aminoacetamido)-N-(3-(2-cyclopropylthiazol-5-yl)phenyl)-N-((trans-4-(4-methoxy-3-methylphenyl)cyclohexyl)methyl) cyclohexanecarboxamide] | 6.00 to 6.60
14 | COc1ccc([C@H]2CC[C@H](CN(c3cccc(-c4coc(C5CC5)n4)c3)C(=O)[C@H]3CC[C@H](CC(=O)O)CC3)CC2)nc1C#N [Compound 21.13, 2-(trans-4-(((trans-4-(6-Cyano-5-methoxypyridin-2-yl)cyclohexyl)methyl)(3-(2-cyclopropyloxazol-4-yl)phenyl)carbamoyl)cyclohexyl)acetic acid] | ≥ 6.60
15 | COc1ccc([C@H]2CC[C@H](CN(c3cc(-c4coc(C5CC5)n4)ccn3)C(=O)[C@H]3CC[C@H](OC(=O)NC(C)C)CC3)CC2)nc1C [Compound 6.58, trans-4-((4-(2-Cyclopropyloxazol-4-yl)pyridine-2-yl)((trans-4-(5-methoxy-6-methylpyridin-2-yl)cyclohexyl)methyl)carbamoyl)cyclohexyl isopropylcarbamate] | ≥ 6.60
16 | CN(C)c1ccc([C@H]2CC[C@H](CN(c3cccc(-c4coc(C5CC5)n4)c3)C(=O)[C@H]3CC[C@H](OC(=O)NCCO)CC3)CC2)cn1 [Compound 4.22, trans-4-((3-(2-Cyclopropyloxazol-4-yl)phenyl)((trans-4-(6-(dimethylamino)pyridine-3-yl)cyclohexyl)methyl)carbamoyl)cyclohexyl (2-hydroxyethyl)carbamate] | ≥ 6.60
17 | COc1ncc(-c2cccc(N(C[C@H]3CC[C@H](c4ccc(OC)c(C)c4)CC3)C(=O)[C@H]3CC[C@H](NC(C)=O)CC3)c2)s1 [Compound 25.04, trans-4-Acetamido-N-((trans-4-(4-methoxy-3-methylphenyl)cyclohexyl)methyl)-N-(3-(2-methoxythiazol-5-yl)phenyl)cyclohexanecarboxamide] | ≥ 6.60

Reference: patent US20220089575A1, “FARNESOID X RECEPTOR AGONISTS AND USES THEREOF” (Metacrine, Inc., priority 2017, published 2022)
